Among the data in US12486267B2, “Imidazo[1,2-A]pyridine and [1,2,4]triazolo[1,5-A]pyridine derivatives as TLR9 inhibitors for the treatment of fibrosis” (BRISTOL-MYERS SQUIBB COMPANY, priority 2020, dated 2025) are IC50 values, retold here.

pIC50: −log10 of the molar value. Some results are limits rather than exact numbers.

Usually pIC50 stands for −log10 of the IC50, conventionally taken in molar units. Higher therefore signals a small IC50.

Common to all, as to assay type: cell-based
One test deals with T1, human TLR8 (Homo sapiens, UniProt Q9NR97).
T1 sequence (Q9NR97 27-1041): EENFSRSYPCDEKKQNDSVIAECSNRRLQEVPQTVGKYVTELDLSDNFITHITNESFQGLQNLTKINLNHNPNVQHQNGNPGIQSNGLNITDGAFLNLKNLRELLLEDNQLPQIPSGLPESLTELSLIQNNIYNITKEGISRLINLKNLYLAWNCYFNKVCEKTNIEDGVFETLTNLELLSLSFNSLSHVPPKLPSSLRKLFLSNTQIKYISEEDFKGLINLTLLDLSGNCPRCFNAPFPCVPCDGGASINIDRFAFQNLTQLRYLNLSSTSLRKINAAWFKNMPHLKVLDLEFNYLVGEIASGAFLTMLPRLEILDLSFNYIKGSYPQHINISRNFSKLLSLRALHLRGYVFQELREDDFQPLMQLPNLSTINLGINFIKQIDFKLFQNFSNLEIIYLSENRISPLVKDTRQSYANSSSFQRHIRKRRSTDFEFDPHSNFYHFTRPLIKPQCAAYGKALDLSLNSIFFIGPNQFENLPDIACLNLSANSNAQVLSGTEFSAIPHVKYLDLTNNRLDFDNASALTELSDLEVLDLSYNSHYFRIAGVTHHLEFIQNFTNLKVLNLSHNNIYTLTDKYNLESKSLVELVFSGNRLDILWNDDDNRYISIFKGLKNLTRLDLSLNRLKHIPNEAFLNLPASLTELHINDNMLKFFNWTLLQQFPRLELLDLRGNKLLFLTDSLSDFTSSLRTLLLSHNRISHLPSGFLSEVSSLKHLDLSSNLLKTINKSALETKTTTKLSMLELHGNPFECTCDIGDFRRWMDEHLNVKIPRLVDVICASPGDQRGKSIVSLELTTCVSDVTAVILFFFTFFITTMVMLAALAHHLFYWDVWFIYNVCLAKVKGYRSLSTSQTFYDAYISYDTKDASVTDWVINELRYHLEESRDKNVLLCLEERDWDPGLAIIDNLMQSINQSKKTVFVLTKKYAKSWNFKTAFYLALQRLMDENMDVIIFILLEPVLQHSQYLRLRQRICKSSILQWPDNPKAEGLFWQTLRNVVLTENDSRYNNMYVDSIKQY
Description: TLR8 inhibition reporter assay (HEK-Blue cells, SEAP reporter). The following applies: HEK-Blue cells overexpressing human TLR8; stimulated with R848 15.9 μM; 22 hour incubation; SEAP readout. In short, it runs like this:
(§1)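 HEK-Blue cells with NF-κB/AP-1-driven SEAP pre-treated 30 min with compound (0.05 nM–50 μM), then stimulated with gardiquimod 7.5 μM (TLR7), R848 15.9 μM (TLR8) or ODN2006 5 nM (TLR9). SEAP detected after 22 h at 37 °C; percent inhibition relative to agonist-plus-DMSO and known-inhibitor wells.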
On the technique in general: In a reporter assay the amount or activity of a reporter protein is the signal.

The target in the next test is T2, human TLR9 (Homo sapiens, UniProt Q9NR96).
T2 sequence (Q9NR96 26-1032): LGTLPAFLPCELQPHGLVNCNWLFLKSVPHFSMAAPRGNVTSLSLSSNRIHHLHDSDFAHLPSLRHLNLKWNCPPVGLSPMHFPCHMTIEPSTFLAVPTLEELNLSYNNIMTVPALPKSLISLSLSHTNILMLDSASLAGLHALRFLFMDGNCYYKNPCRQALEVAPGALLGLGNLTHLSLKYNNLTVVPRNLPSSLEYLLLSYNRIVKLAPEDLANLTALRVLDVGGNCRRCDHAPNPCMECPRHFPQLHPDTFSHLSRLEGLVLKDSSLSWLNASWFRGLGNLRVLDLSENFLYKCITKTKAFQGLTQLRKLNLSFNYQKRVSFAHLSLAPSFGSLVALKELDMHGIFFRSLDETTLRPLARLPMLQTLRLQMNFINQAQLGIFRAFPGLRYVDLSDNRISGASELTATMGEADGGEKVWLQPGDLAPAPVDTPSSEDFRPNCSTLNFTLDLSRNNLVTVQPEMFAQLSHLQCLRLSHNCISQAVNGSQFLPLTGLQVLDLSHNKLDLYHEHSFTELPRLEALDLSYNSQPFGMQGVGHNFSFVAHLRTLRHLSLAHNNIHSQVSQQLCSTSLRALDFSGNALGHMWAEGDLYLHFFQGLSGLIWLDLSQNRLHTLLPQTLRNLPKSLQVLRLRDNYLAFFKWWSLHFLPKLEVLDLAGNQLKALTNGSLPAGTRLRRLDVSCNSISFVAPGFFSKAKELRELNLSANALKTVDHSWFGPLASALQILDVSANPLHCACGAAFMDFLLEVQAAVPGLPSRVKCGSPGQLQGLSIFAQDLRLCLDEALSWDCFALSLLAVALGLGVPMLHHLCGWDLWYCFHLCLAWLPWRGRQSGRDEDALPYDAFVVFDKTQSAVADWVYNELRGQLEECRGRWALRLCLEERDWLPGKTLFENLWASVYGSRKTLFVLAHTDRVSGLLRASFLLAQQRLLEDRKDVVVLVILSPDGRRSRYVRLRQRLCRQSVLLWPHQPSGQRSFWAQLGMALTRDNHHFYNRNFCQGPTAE
Description: TLR9 inhibition reporter assay (HEK-Blue cells, SEAP reporter). The following applies: HEK-Blue cells overexpressing human TLR9; stimulated with ODN2006 5 nM; 22 hour incubation; SEAP readout. In short, it runs like this:
as §1

A further test deals with T3, human TLR7 (Homo sapiens, UniProt Q9NYK1).
T3 sequence (Q9NYK1 27-1049): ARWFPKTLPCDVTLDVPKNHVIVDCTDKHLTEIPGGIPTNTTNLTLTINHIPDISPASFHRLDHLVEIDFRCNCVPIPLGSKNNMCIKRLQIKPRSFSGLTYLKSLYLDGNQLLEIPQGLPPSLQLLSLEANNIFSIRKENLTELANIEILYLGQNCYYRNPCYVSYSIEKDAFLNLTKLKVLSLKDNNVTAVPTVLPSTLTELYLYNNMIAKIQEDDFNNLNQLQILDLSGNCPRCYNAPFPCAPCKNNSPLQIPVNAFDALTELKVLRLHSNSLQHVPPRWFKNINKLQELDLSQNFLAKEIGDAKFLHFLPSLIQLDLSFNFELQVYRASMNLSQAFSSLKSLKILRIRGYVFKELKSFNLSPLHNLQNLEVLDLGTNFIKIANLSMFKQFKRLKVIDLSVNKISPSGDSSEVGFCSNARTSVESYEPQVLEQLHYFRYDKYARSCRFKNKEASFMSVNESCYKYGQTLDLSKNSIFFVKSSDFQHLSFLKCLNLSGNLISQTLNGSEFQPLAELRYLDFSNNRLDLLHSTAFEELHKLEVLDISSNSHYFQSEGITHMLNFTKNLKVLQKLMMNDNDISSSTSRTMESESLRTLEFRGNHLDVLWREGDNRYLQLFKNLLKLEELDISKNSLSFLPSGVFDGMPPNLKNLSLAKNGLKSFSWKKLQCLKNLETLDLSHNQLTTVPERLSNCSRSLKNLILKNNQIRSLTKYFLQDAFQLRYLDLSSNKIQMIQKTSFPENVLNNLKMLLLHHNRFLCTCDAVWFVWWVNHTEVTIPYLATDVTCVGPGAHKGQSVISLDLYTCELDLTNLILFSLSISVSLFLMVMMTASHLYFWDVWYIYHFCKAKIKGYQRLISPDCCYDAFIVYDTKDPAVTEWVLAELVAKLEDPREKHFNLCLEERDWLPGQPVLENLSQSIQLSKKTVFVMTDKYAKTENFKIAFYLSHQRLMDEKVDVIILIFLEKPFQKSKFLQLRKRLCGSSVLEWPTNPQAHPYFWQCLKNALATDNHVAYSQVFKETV
The experiment in a line: TLR7 inhibition reporter assay (HEK-Blue cells, SEAP reporter). Particulars: HEK-Blue cells overexpressing human TLR7; stimulated with gardiquimod 7.5 μM; 22 hour incubation; SEAP readout. In short, it runs like this: as §1

For the compound `CS(=O)(=O)c1ccc(-c2cn3cc(C4CCN(C5CC6CCC(C5)N6CC5CC5)CC4)cc(F)c3n2)cc1` (single isomer, unassigned) [Example 115, 6-(1-(8-(cyclopropylmethyl)-8-azabicyclo[3.2.1]octan-3-yl)piperidin-4-yl)-8-fluoro-2-(4-(methylsulfonyl)phenyl)imidazo[1,2-a]pyridine], the negative logarithm of the IC50 (pIC50) at human TLR8 was 4.31; against human TLR9, 7.37; against human TLR7, 5.77.

As to `Cc1cc(C2CCN(C3CCN(C(C)C)CC3)CC2)cn2nc(-c3ccc(S(C)(=O)=O)cc3)nc12` [Example 162, 6-(1′-isopropyl-[1,4′-bipiperidin]-4-yl)-8-methyl-2-(4-(methylsulfonyl)phenyl)-[1,2,4]triazolo[1,5-a]pyridine], the results for the negative-log IC50 (pIC50) against human TLR8, on human TLR9 and against human TLR7 were less than 4.30, 7.10 and 5.16, respectively.

Take `CS(=O)(=O)c1ccc(-c2cn3cc(C4CCN(C5CCN(C6CC6)CC5)CC4)cc(F)c3n2)cc1` [Example 108, 6-(1′-cyclopropyl-[1,4′-bipiperidin]-4-yl)-8-fluoro-2-(4-(methylsulfonyl)phenyl) imidazo[1,2-a]pyridine]: the negative logarithm of the IC50 (pIC50) is less than 4.30 against human TLR8, 6.50 against human TLR9 and 4.53 at human TLR7.
